ChEMBL document CHEMBL4052645, “Discovery of potent and efficacious pyrrolopyridazines as dual JAK1/3 inhibitors” (Bioorg Med Chem Lett, 2017)

Assays:
[1] = target: Ephrin type-B receptor 1 (Homo sapiens) (UniProt P54762); assay: Inhibition of wild-type human partial length EPHB1 (P589 to T911 residues) expressed in bacterial expression system assessed as residual activity at 50 nM by Kinomescan method relative to control
[2] = target: Tyrosine-protein kinase BTK (Homo sapiens) (UniProt Q06187); assay: Inhibition of wild-type human full length BTK (M1 to S659 residues) expressed in mammalian expression system assessed as residual activity at 50 nM by Kinomescan method relative to control
[3] = system: Mus musculus; assay: In vivo inhibition of JAK1/JAK3 in Balb/c mouse assessed as reduction in IL15-induced STAT5 phosphorylation at […], po after 4 hrs; type: functional, organism-based
[4] = target: Mitogen-activated protein kinase kinase kinase kinase 4 (Homo sapiens) (UniProt O95819); assay: Inhibition of wild-type human partial length HGK (M1 to R310 residues) expressed in bacterial expression system assessed as residual activity at 50 nM by Kinomescan method relative to control
Sequence of Mitogen-activated protein kinase kinase kinase kinase 4 (Homo sapiens) (O95819 2-1239 limits assumed): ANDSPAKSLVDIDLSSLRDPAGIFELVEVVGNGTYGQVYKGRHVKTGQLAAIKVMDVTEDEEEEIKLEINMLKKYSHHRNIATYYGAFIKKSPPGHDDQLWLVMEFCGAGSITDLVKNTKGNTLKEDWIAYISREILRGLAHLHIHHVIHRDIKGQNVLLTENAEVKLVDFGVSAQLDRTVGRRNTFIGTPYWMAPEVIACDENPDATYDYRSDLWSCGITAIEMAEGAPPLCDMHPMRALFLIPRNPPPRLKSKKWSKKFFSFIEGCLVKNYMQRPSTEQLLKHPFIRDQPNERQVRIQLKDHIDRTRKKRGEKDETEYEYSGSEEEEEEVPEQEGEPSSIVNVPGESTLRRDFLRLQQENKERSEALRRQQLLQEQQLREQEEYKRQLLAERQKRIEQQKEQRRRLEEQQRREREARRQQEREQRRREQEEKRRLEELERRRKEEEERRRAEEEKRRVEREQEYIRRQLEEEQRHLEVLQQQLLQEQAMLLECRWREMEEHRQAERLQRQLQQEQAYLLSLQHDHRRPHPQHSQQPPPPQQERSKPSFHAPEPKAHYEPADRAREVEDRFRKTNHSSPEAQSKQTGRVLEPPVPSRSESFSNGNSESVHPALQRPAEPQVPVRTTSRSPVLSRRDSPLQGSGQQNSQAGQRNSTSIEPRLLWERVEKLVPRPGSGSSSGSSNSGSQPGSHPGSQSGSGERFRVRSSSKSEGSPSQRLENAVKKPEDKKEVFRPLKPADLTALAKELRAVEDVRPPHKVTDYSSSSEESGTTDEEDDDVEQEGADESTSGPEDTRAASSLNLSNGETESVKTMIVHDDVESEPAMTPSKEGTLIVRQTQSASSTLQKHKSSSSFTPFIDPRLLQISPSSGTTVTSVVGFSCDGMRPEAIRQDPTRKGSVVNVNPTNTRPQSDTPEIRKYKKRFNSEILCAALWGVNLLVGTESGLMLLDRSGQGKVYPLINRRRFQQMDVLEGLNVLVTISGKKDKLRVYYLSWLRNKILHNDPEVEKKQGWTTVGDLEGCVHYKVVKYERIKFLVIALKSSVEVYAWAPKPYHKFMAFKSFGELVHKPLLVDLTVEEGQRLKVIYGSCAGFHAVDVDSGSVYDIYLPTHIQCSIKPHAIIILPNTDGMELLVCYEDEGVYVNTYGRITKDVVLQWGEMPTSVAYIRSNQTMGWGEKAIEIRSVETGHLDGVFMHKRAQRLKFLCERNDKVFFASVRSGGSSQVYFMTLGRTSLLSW

[5] = target: Non-receptor tyrosine-protein kinase TYK2 (Homo sapiens, UniProt P29597); assay: Inhibition of TYK2 (unknown origin) assessed as residual activity at 50 nM by KINOMEscan assay relative to control
[6] = target: Serine/threonine-protein kinase TAO3 (Homo sapiens) (UniProt Q9H2K8); assay: Inhibition of wild-type human partial length TAO3 (M1 to T316 residues) expressed in mammalian expression system assessed as residual activity at 50 nM by Kinomescan method relative to control
[7] = target: Mitogen-activated protein kinase 6 (Homo sapiens) (UniProt Q16659); assay: Inhibition of wild-type human partial length ERK3 (M1 to P413 residues) expressed in bacterial expression system assessed as residual activity at 50 nM by Kinomescan method relative to control
[8] = target: Serine/threonine-protein kinase Nek1 (Homo sapiens) (UniProt Q96PY6); assay: Inhibition of wild-type human partial length NEK1 (M1 to K278 residues) expressed in bacterial expression system assessed as residual activity at 50 nM by Kinomescan method relative to control
Sequence of Serine/threonine-protein kinase Nek1 (Homo sapiens) (Q96PY6 whole entry, the tested form may be a part): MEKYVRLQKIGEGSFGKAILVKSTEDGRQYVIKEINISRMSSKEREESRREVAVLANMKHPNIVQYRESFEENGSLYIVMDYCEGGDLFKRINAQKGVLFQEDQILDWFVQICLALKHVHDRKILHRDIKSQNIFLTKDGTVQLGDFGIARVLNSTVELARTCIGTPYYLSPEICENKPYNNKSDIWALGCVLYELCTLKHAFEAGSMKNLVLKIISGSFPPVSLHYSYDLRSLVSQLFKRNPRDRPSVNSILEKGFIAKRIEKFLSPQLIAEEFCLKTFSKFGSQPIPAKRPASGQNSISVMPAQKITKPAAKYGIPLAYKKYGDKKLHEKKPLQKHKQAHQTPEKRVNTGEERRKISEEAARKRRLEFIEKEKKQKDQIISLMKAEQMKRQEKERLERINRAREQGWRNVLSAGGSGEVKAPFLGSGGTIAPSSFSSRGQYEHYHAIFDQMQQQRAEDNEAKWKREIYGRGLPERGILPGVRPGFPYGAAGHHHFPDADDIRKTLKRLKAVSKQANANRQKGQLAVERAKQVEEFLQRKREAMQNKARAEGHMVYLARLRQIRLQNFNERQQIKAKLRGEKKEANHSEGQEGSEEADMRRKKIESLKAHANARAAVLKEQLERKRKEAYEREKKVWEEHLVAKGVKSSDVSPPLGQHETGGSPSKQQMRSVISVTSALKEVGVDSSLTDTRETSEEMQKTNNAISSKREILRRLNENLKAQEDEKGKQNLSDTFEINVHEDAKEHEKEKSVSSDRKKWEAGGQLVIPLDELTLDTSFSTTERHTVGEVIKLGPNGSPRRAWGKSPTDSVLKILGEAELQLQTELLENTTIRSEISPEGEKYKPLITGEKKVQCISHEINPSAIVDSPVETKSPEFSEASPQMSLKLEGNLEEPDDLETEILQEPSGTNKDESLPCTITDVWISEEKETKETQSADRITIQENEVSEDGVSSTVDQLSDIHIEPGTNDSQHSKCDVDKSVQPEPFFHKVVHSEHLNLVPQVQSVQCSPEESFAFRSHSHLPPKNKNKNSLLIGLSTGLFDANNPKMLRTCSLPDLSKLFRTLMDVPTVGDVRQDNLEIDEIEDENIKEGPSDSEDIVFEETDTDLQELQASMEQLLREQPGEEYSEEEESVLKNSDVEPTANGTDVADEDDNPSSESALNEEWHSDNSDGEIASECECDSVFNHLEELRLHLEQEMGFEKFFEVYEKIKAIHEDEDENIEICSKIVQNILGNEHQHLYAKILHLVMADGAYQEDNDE

[9] = target: Cyclin-dependent kinase 3 (Homo sapiens) (UniProt Q00526); assay: Inhibition of wild-type human full length CDK3 (M1 to H305 residues) expressed in bacterial expression system assessed as residual activity at 50 nM by Kinomescan method relative to control
[10] = target: Tyrosine-protein kinase Blk (Homo sapiens) (UniProt P51451); assay: Inhibition of wild-type human partial length BLK (G211 to L503 residues) expressed in bacterial expression system assessed as residual activity at 50 nM by Kinomescan method relative to control
[11] = target: Aurora kinase A (Homo sapiens) (UniProt O14965); assay: Inhibition of wild-type human partial length AURA (E122 to K401 residues) expressed in mammalian expression system assessed as residual activity at 50 nM by Kinomescan method relative to control
Sequence of Aurora kinase A (Homo sapiens) (O14965 whole entry, the tested form may be a part): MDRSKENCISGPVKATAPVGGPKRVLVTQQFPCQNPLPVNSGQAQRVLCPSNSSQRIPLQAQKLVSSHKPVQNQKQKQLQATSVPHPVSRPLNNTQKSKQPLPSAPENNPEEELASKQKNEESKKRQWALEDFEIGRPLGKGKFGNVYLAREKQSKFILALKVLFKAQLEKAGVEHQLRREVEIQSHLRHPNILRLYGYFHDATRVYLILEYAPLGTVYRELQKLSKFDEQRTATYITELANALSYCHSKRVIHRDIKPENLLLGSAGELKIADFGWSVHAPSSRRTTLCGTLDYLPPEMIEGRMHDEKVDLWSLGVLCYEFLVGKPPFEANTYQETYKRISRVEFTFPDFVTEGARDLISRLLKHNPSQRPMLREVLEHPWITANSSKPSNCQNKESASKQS

[12] = target: Tyrosine-protein kinase Srms (Homo sapiens) (UniProt Q9H3Y6); assay: Inhibition of wild-type human partial length SRMS (L208 to P488 residues) expressed in mammalian expression system assessed as residual activity at 50 nM by Kinomescan method relative to control
[13] = target: Tyrosine-protein kinase ITK/TSK (Homo sapiens) (UniProt Q08881); assay: Inhibition of wild-type human partial length ITK (R335 to L620 residues) expressed in bacterial expression system assessed as residual activity at 50 nM by Kinomescan method relative to control
[14] = target: Glycogen synthase kinase-3 beta (Homo sapiens) (UniProt P49841); assay: Inhibition of wild-type human full length GSK3B (M1 to T433 residues) expressed in mammalian expression system assessed as residual activity at 50 nM by Kinomescan method relative to control
Sequence of Glycogen synthase kinase-3 beta (Homo sapiens) (P49841 whole entry, looked up, the tested form may be a part): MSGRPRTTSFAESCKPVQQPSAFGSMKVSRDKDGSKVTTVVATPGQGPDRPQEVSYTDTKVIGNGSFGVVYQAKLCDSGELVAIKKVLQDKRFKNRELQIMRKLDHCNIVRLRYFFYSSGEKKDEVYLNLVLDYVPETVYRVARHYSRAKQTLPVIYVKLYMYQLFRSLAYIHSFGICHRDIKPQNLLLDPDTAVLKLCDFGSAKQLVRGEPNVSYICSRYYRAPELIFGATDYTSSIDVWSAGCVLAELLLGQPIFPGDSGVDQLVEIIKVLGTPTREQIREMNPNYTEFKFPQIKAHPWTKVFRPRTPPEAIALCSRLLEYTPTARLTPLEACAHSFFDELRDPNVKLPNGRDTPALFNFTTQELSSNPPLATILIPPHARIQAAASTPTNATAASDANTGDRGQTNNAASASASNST

[15] = target: 5'-AMP-activated protein kinase catalytic subunit alpha-1 (Homo sapiens) (UniProt Q13131); assay: Inhibition of wild-type human partial length AMPK alpha1 (M1 to E306 residues) expressed in bacterial expression system assessed as residual activity at 50 nM by Kinomescan method relative to control
[16] = target: Cyclin-dependent kinase 8 (Homo sapiens) (UniProt P49336); assay: Inhibition of wild-type human partial length CDK8 (M1 to T360 residues) expressed in bacterial expression system assessed as residual activity at 50 nM by Kinomescan method relative to control
[17] = target: Serine/threonine-protein kinase 25 (Homo sapiens) (UniProt O00506); assay: Inhibition of wild-type human partial length YSK1 (V14 to H295 residues) expressed in bacterial expression system assessed as residual activity at 50 nM by Kinomescan method relative to control
Sequence of Serine/threonine-protein kinase 25 (Homo sapiens) (O00506 whole entry, looked up, the tested form may be a part): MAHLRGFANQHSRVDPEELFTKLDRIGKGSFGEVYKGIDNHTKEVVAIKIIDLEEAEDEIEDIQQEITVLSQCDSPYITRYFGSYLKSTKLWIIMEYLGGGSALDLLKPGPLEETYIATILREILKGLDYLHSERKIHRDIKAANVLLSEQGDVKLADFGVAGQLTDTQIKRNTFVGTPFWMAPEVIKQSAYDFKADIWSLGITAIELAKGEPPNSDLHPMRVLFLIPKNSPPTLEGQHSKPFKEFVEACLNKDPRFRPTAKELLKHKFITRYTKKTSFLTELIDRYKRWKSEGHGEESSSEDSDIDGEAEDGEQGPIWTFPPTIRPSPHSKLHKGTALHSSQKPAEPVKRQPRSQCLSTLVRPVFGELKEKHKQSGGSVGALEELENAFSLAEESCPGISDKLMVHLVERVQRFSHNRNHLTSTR

[18] = target: Cyclin-dependent kinase 15 (Homo sapiens) (UniProt Q96Q40); assay: Inhibition of wild-type human full length PFTAIRE2 (M1 to W384 residues) expressed in bacterial expression system assessed as residual activity at 50 nM by Kinomescan method relative to control
[19] = target: Ribosomal protein S6 kinase alpha-1 (Homo sapiens) (UniProt Q15418); assay: Inhibition of wild-type human partial length C-terminal RSK1 […] (P360 to L681 residues) expressed in bacterial expression system assessed as residual activity at 50 nM by Kinomescan method relative to control
Sequence of Ribosomal protein S6 kinase alpha-1 (Homo sapiens) (Q15418 whole entry, the tested form may be a part): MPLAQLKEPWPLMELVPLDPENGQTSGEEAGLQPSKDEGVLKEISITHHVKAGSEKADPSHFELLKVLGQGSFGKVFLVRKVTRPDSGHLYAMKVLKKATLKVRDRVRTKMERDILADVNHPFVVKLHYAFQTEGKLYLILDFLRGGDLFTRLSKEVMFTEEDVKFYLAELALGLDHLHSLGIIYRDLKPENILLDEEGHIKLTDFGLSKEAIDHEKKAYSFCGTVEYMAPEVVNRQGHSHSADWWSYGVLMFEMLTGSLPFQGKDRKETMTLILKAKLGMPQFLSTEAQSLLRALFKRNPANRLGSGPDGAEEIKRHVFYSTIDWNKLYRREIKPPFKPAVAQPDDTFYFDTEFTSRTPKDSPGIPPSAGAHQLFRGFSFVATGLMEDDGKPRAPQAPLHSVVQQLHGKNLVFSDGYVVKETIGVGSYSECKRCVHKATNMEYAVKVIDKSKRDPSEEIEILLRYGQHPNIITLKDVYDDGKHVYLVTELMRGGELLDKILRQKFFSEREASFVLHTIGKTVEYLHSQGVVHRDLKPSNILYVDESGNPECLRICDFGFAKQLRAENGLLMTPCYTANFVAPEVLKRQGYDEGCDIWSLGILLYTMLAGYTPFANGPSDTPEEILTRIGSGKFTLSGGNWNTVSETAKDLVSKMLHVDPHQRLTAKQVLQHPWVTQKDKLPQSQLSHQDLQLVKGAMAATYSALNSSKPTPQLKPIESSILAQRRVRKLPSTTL

[20] = target: High affinity nerve growth factor receptor (Homo sapiens) (UniProt P04629); assay: Inhibition of wild-type human partial length TRKA (G475 to G790 residues) expressed in mammalian expression system assessed as residual activity at 50 nM by Kinomescan method relative to control
[21] = target: Ribosomal protein S6 kinase alpha-6 (Homo sapiens) (UniProt Q9UK32); assay: Inhibition of wild-type human partial length C-terminal RSK4 kinase domain 2 (I401 to Y711 residues) expressed in bacterial expression system assessed as residual activity at 50 nM by Kinomescan method relative to control
[22] = target: Dual specificity mitogen-activated protein kinase kinase 4 (Homo sapiens) (UniProt P45985); assay: Inhibition of wild-type human partial length MAP2K4 (S84 to D399 residues) expressed in mammalian expression system assessed as residual activity at 50 nM by Kinomescan method relative to control
Sequence of Dual specificity mitogen-activated protein kinase kinase 4 (Homo sapiens) (P45985 whole entry, the tested form may be a part): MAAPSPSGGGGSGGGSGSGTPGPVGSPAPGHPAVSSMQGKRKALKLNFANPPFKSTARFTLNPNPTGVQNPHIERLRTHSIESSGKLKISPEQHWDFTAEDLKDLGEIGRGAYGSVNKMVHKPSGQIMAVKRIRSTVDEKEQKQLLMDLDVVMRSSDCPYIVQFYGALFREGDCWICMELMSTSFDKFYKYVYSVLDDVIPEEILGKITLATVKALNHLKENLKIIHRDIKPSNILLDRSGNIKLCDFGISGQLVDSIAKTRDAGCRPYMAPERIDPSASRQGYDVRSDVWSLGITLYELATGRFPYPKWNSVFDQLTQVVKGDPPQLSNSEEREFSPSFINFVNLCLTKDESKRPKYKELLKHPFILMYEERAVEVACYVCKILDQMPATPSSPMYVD

[23] = target: Serine/threonine-protein kinase tousled-like 1 (Homo sapiens) (UniProt Q9UKI8); assay: Inhibition of wild-type human partial length TLK1 (K447 to A754 residues) expressed in bacterial expression system assessed as residual activity at 50 nM by Kinomescan method relative to control
[24] = target: Protein-tyrosine kinase 6 (Homo sapiens) (UniProt Q13882); assay: Inhibition of wild-type human partial length BRK (L166 to T451 residues) expressed in bacterial expression system assessed as residual activity at 50 nM by Kinomescan method relative to control
[25] = target: Serine/threonine-protein kinase Nek2 (Homo sapiens) (UniProt P51955); assay: Inhibition of wild-type human partial length NEK2 (M1 to K309 residues) expressed in bacterial expression system assessed as residual activity at 50 nM by Kinomescan method relative to control
[26] = target: LIM domain kinase 2 (Homo sapiens) (UniProt P53671); assay: Inhibition of wild-type human full length LIMK2 (M1 to P638 residues) expressed in bacterial expression system assessed as residual activity at 50 nM by Kinomescan method relative to control

## COc1ccc(-c2cc3c(N[C@@H]4CC[C@](C)(N)C4(C)C)c(C(N)=O)cnn3c2)cn1
[1]
  Activity: 88%
[2]
  Activity: 100%
[3]
  EC50: 67 nM
[4]
  Activity: 100%
[5]
  Activity: 50%
[6]
  Activity: 78%
[7]
  Activity: 100%
[8]
  Activity: 92%
[9]
  Activity: 94%
[10]
  Activity: 95%
[11]
  Activity: 100%
[12]
  Activity: 94%
[13]
  Activity: 90%
[14]
  Activity: 86%
[15]
  Activity: 62%
[16]
  Activity: 86%
[17]
  Activity: 74%
[18]
  Activity: 90%
[19]
  Activity: 100%
[20]
  Activity: 100%
[21]
  Activity: 96%
[22]
  Activity: 100%
[23]
  Activity: 80%
[24]
  Activity: 96%
[25]
  Activity: 93%
[26]
  Activity: 100%

## CC1(C)[C@H](Nc2c(C(N)=O)cnn3cc(-c4ccccc4)cc23)CC[C@]1(C)N
[1]
  Activity: 100%
[2]
  Activity: 99%
[3]
  EC50: 125 nM
[4]
  Activity: 90%
[5]
  Activity: 50%
[6]
  Activity: 82%
[7]
  Activity: 82%
[8]
  Activity: 100%
[9]
  Activity: 98%
[10]
  Activity: 100%
[11]
  Activity: 88%
[12]
  Activity: 64%
[13]
  Activity: 89%
[14]
  Activity: 100%
[15]
  Activity: 37%
[16]
  Activity: 100%
[17]
  Activity: 58%
[18]
  Activity: 100%
[19]
  Activity: 81%
[20]
  Activity: 83%
[21]
  Activity: 50%
[22]
  Activity: 100%
[23]
  Activity: 61%
[24]
  Activity: 100%
[25]
  Activity: 72%
[26]
  Activity: 92%
